For data set [1], the system named is Acinetobacter baumannii DSM 30008. Description: Antimicrobial serial dilution assay (MIC). It is filed as cell-based. The note with it: n.i.: no inhibition. In short, it runs like this: (§1)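 Minimum inhibitory concentrations come from a serial dilution assay described elsewhere, performed on bacterial and yeast/fungal strains including A. baumannii, E. coli, M. smegmatis, P. aeruginosa PA14 and S. aureus.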

Data set [2] relates to Bacillus subtilis DSM 10. The data set can be described thus: Antimicrobial serial dilution assay (MIC). It is filed as cell-based. In short, it runs like this:
as §1

Data set [3] relates to Candida albicans DSM1665. The data set can be described thus: Antimicrobial serial dilution assay (MIC). It is filed as cell-based. The following applies: n.i.: no inhibition. In short, it runs like this: as §1
In data set [4] the test system is Chromobacterium violaceum DSM 30191. The data set can be described thus: Antimicrobial serial dilution assay (MIC). The class given is cell-based. In short, it runs like this:
as §1

The test system of data set [5] is Escherichia coli DSM 1116. The data set can be described thus: Antimicrobial serial dilution assay (MIC). The class given is cell-based. The note with it: n.i.: no inhibition. In short, it runs like this: as §1
In data set [6] the test system is Mucor hiemalis DSM 2656. The data set can be described thus: Antimicrobial serial dilution assay (MIC). It is filed as cell-based. In short, it runs like this: as §1
For data set [7], the system named is Mycobacterium smegmatis ATCC 700084. The data set can be described thus: Antimicrobial serial dilution assay (MIC). The following applies: Mycolicibacterium smegmatis. It is filed as cell-based. In short, it runs like this: as §1
Data set [8] has as its system Pichia anomala DSM 6766. Description: Antimicrobial serial dilution assay (MIC). It is filed as cell-based. The following applies: Hansenula anomala. In short, it runs like this: as §1
Data set [9] concerns Pseudomonas aeruginosa PA14. The data set can be described thus: Antimicrobial serial dilution assay (MIC). It is filed as cell-based. The note with it: n.i.: no inhibition. In short, it runs like this: as §1
Data set [10] has as its system Rhodotorula glutinis DSM 10134. The data set can be described thus: Antimicrobial serial dilution assay (MIC). The class given is cell-based. The procedure, abridged: as §1
In data set [11] the test system is Schizosaccharomyces pombe DSM 70572. Description: Antimicrobial serial dilution assay (MIC). The class given is cell-based. The procedure, abridged:
as §1

The test system of data set [12] is Staphylococcus aureus DSM 346. The data set can be described thus: Antimicrobial serial dilution assay (MIC). The class given is cell-based. The procedure, abridged:
as §1

Data set [13] in a line: MTT cytotoxicity assay. The following applies: read-out: Cytotoxic activity (IC50). It is filed as cell-based. How it is done:
(§2) The in vitro cytotoxicity assay was performed using the MTT (3-(4,5-dimethylthiayol-2-yl)-2,5-diphenyltetrazolium bromide) test in 96-well microtiter plates as previously described.
In general terms: Formazan colour is commonly taken as a measure of viable cells.

In data set [14] the test system is H. fraxineus (isolate RH02-T6-B4-2). Description: Agar disc diffusion assay. The class given is cell-based, Hymenoscyphus fraxineus. The following applies: for Antifungal activity, inhibition diameter: 6 mm disc, 7 days, 21 °C; for inhibitory effects against H. fraxineus (in words): 50 µg (1) and 20 µg (3) test substance per paper disc. In short, it runs like this:
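Sterile paper discs on potato–dextrose agar inoculated with H. fraxineus in 9 cm dishes; nystatin (20 and 50 µg/disc) as positive and methanol (10 µL/disc) as negative control. Plates held at 21 °C for 7 days, then inhibition zone diameters measured.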

For data set [15], the system named is Fraxineus excelsior leaves. The data set can be described thus: Phytotoxicity leaf puncture assay. The note with it: 1 mg/mL in MeOH, 20 µL on punctured leaves, evaluated after 3 days. How it is done:
The phytotoxicity of the compounds 1, 3 and 4 was assessed using the leaf puncture assay as described previously. The other compounds could not be evaluated because of the limited quantity.
For this assay, similar leaves of the same Fraxineus excelsior plant were chosen onto which the compounds were applied. The pure compounds were dissolved at 1 mg/mL in MeOH. Then, 20 µL of test samples were applied to the adaxial sides of leaves that had previously been needle punctured. A total of 20 µL of MeOH in distilled water (4%) was applied on the leaves as the negative control and 1 mg/mL macrocidin A [23] as the positive control. Each treatment was repeated three times and then the leaves were placed on moistened paper filters in petri dishes (diameter 9 cm) to prevent the droplets from drying. The experiment was run in duplicate. Leaves were evaluated for the symptoms after 3 days.

Data set [16] relates to panel of bacteria and fungi. The data set can be described thus: Antimicrobial serial dilution assay, whole panel (summary statements). The class given is cell-based. Here is the method:
The antimicrobial activity (minimum inhibitory concentration, MIC) of the compounds was determined against Acinetobacter baumannii DSM 30008, Bacillus subtilis DSM 10, Chromobacterium violaceum DSM 30191, Escherichia coli DSM 1116, Mycobacterium smegmatis ATCC 700084, Pseudomonas aeruginosa PA14, Staphylococcus aureus DSM 346, Candida albicans DSM1665, Mucor hiemalis DSM 2656, Pichia anomala DSM 6766, Rhodotorula glutinis DSM 10134 and Schizosaccharomyces pombe DSM 70572 in a serial dilution assay as previously described.

Data set [17] has as its system panel of mammalian cell lines. The data set can be described thus: MTT cytotoxicity assay, panel (summary statements). The following applies: 4–6 only KB3.1 and L929. The class given is cell-based. Here is the method:
as §2

For data set [18], the system named is Micrococcus luteus. Also on record: method as in PMID 24529574. The note with it: cited from earlier work.
Data set [19] has as its system Mycobacterium diernhoferi. Also on record: method as in PMID 24529574. The note with it: cited from earlier work.
In data set [20] the test system is Nocardia sp. Also noted: method as in PMID 24529574. The note with it: cited from earlier work.
The subject of data set [21] is Nocardioides simplex. Also on record: method as in PMID 24529574. The following applies: cited from earlier work.
In data set [22] the test system is S. aureus. Also noted: method as in PMID 24529574. The note with it: cited from earlier work.
Data set [23] deals with methicillin-resistant S. aureus (MRSA) strain N315e. Also on record: method as in PMID 24529574. The note with it: cited from earlier work.
[24] abbreviates: 50 µg/paper disc, n.i.: no inhibition.

pIC50: −log10 of the molar value. Values after ≈ are worked out from the molar mass of the structure shown. “Also recorded” adds a separate entry of the source. Like-named read-outs stand apart in the source and are kept apart here.

For orientation: pIC50 means −log10 of the IC50, conventionally taken in molar units. Take `C[C@H]1CC[C@H]2[C@@H](C=C[C@H](C)[C@]2(C)C(=O)C2=C(O)[C@H]([C@@H](C)O)N(C)C2=O)C1` [Compound 1, CJ-17,572]: the “Minimum inhibitory concentration (MIC)” value in data set [1], in data set [3], in data set [4] (n.i.: no inhibition), in data set [5] and in [9] was “n.i” each time. Further, the MIC in data set [2] (Bacillus subtilis, DSM10, read-out: Minimum inhibitory concentration (MIC)) turned out to be 8.3 µg/mL (≈ 23 µM); in data set [6] (Mucor hiemalis, DSM2656, read-out: Minimum inhibitory concentration (MIC)), 4.2 µg/mL (≈ 11.6 µM); in data set [7] (ATCC700084, read-out: Minimum inhibitory concentration (MIC)), 66.6 µg/mL (≈ 184 µM); in data set [8] (DSM6766, read-out: Minimum inhibitory concentration (MIC)) it was 33.3 µg/mL (≈ 92.1 µM); in data set [10] (Rhodotorula glutinis, DSM10134, read-out: Minimum inhibitory concentration (MIC)) it was 66.6 µg/mL (≈ 184 µM); in data set [11] (Schizosaccharomyces pombe, DSM70572, read-out: Minimum inhibitory concentration (MIC)), 33.3 µg/mL (≈ 92.1 µM). The MIC in data set [12] (Staphylococcus aureus, DSM346, read-out: Minimum inhibitory concentration (MIC)) came out at 8.3 µg/mL (≈ 23 µM). For the same compound, the negative logarithm of the IC50 (pIC50) in data set [13] (human, A431) is 4.64; in data set [13] (human, A549), 5.36; in data set [13] (human, KB3.1, n.c.: no cytotoxicity) it was 5.60; in [13] (human, MCF-7), 5.57; in data set [13] (human, PC-3) it was 5.48; in data set [13] (human, SKOV-3), 5.48. Also, the pIC50 in data set [13] (mouse, L929, n.c.: no cytotoxicity) was 5.30. Also, the “Antifungal activity, inhibition diameter” value in [14] (20 µg/paper disc) is recorded as 9 mm; in [14] (setting [24]), 11 mm. In data set [14], the “inhibitory effects against H. fraxineus (in words)” value was “strong inhibitory effects”. In data set [15], the “phytotoxic activity, leaf puncture assay” value was “brownish lesions”. Moreover, the “antimicrobial activity against the tested microorganisms (in words)” value in [16] is “moderate to weak antifungal activity”. For the same compound, the “cytotoxicity against the tested cell lines (in words)” value in data set [17] is on record as “active against all the tested cell lines”.

Take `C/C=C/[C@@H]1C(C)=C[C@@H]2C[C@H](C)CC[C@H]2[C@]1(C)/C(O)=C1\C(=O)N[C@@H]([C@@H](C)O)C1=O` [hymenosetin]: the MIC in data set [18], in [19], in [20], in data set [21], in data set [22] and in [23] was at most 1.0 µg/mL each time.

Regarding `CC=C(Cl)C1=CC(=O)C23CC2C(C)(C)OC3(O)C1=O` (centres unmarked) [Compound 3, Mycorrhizin A], the “Minimum inhibitory concentration (MIC)” value in data set [1], in [5] and in data set [9] was “n.i” throughout. For the same compound, the MIC was found to be 66.6 µg/mL (≈ 236 µM) in data set [2] (DSM10, Bacillus subtilis DSM 10, n.i.: no inhibition, read-out: Minimum inhibitory concentration (MIC)); 66.6 µg/mL (≈ 236 µM) in data set [3] (read-out: Minimum inhibitory concentration (MIC)); 66.6 µg/mL (≈ 236 µM) in data set [4] (DSM30191, n.i.: no inhibition, read-out: Minimum inhibitory concentration (MIC)); 4.2 µg/mL (≈ 14.9 µM) in data set [6] (DSM2656, Mucor hiemalis DSM 2656, n.i.: no inhibition, read-out: Minimum inhibitory concentration (MIC)); 66.6 µg/mL (≈ 236 µM) in data set [7] (ATCC700084, Mycobacterium smegmatis ATCC 700084, n.i.: no inhibition, read-out: Minimum inhibitory concentration (MIC)); 16.6 µg/mL (≈ 58.7 µM) in [8] (DSM6766, Pichia anomala DSM 6766, n.i.: no inhibition, read-out: Minimum inhibitory concentration (MIC)). In addition, the MIC in [10] (DSM10134, Rhodotorula glutinis DSM 10134, n.i.: no inhibition, read-out: Minimum inhibitory concentration (MIC)) amounted to 8.3 µg/mL (≈ 29.4 µM); in data set [11] (DSM70572, Schizosaccharomyces pombe DSM 70572, n.i.: no inhibition, read-out: Minimum inhibitory concentration (MIC)) it was 33.3 µg/mL (≈ 118 µM); in [12] (DSM346, Staphylococcus aureus DSM 346, n.i.: no inhibition, read-out: Minimum inhibitory concentration (MIC)), 66.6 µg/mL (≈ 236 µM). Also, the pIC50 is 6.00 in [13] (human, A431 squamous cell carcinoma cells); 4.66 in data set [13] (human, A549 lung carcinoma cells); 4.96 in data set [13] (human, KB3.1 endocervical adenocarcinoma cells, n.c.: no cytotoxicity); 6.19 in data set [13] (human, MCF-7 breast adenocarcinoma cells); 4.96 in [13] (human, PC-3 prostate cancer cells); 5.62 in [13] (human, SKOV-3 ovarian carcinoma cells). The pIC50 in data set [13] (mouse, L929 fibroblast cells, n.c.: no cytotoxicity) was 5.49. Also, the “Antifungal activity, inhibition diameter” value in [14] (20 µg/paper disc) came out at 19 mm; in data set [14] (setting [24]), 31 mm. For the same compound, the “inhibitory effects against H. fraxineus (in words)” value in data set [14] is on record as “strong inhibitory effects”. For the same compound, the “phytotoxic activity, leaf puncture assay” value in data set [15] is listed as “brownish lesions; also recorded: most phytotoxic effects”. Further, the “antimicrobial activity against the tested microorganisms (in words)” value in data set [16] is listed as “moderate to weak antifungal activity”. In data set [17], the “cytotoxicity against the tested cell lines (in words)” value is recorded as “active against all the tested cell lines”.
